Experimental data taken from patent US20230002736A1, “ENDODERM DIFFERENTIATION FROM PLURIPOTENT STEM CELL LINES” (priority 2019, published 2023).
Entries after “also recorded” stand apart in the source; their conditions may differ. Where two headings read alike, the source gives them in different places.

Tests used:
iPSC lines [1] = assay type: cell-based; conditions: protocol without doxycycline
iPSC line AS7192 = experiment: Endoderm induction compound comparison, cell number at day 7, line AS7192; assay type: cell-based, human; conditions: 1 μM concentration
Description: FIG. 2. Doxycycline Enhanced Endoderm. A: Immunofluorescence and bright-field images showing induction of iPSC line 1023-5 to definitive endoderm (DE) with Hoechst 33342 nuclear staining in blue, and antibody staining in green for OCT3/4, FOXA, HNF1p and CXCR4 with AlexaFluor 488 secondary (green) antibody. […] (scale bar=[…]); B: Compound Screen showing other antibiotics and other compounds affecting the mitochondria were compared to doxycycline. […] The number of cells is shown measured seven days after induction compared to the plating density at day 0 (n=2); C: Comparison of Tetracycline Derivatives in iPSC lines AG02261. […] The number of cells is shown measured seven days after induction compared to the plating density at day 0. […] FIG. 9. Comparison of Tetracycline Derivatives and Other Compounds in additional cell line. A: Induction of iPSC lines AS7192 was performed. […] The number of cells was measured seven days after induction compared to the plating density at day 0. […] Induction of Definitive Endoderm (days 1-7). iPSCs were plated on 6-, 12-, or 96-well Matrigel-coated plates at different densities for differentiation in iPSC media containing 10 μM Y-27632 and 2 μM doxycycline. For example, typical plating density in a single well of a 6-well plate was 500,000 cells or 20,000 cells per well for 96-well plates. […]

iPSC line AG02261 = experiment: Endoderm induction compound comparison, cell number at day 7, line AG02261; assay type: cell-based, human; conditions: for response in compound screen, number of cells seven days after induction: cell line AG02261, FIG. 2B; for effect on endoderm induction at high concentration: AG02261, 10 μM concentration
Description: FIG. 2. Doxycycline Enhanced Endoderm. A: Immunofluorescence and bright-field images showing induction of iPSC line 1023-5 to definitive endoderm (DE) with Hoechst 33342 nuclear staining in blue, and antibody staining in green for OCT3/4, FOXA, HNF1p and CXCR4 with AlexaFluor 488 secondary (green) antibody. […] (scale bar=[…]); B: Compound Screen showing other antibiotics and other compounds affecting the mitochondria were compared to doxycycline. […] The number of cells is shown measured seven days after induction compared to the plating density at day 0 (n=2); C: Comparison of Tetracycline Derivatives in iPSC lines AG02261. […] The number of cells is shown measured seven days after induction compared to the plating density at day 0. […] Induction of Definitive Endoderm (days 1-7). iPSCs were plated on 6-, 12-, or 96-well Matrigel-coated plates at different densities for differentiation in iPSC media containing 10 μM Y-27632 and 2 μM doxycycline. For example, typical plating density in a single well of a 6-well plate was 500,000 cells or 20,000 cells per well for 96-well plates. The differentiation process consisted of one week of RPMI media supplemented with Gem21 NeuroPlex without insulin at 1× (supplied at 50×, Gemini Bio-Products West Sacramento, Calif., catalog #400-962, or supplemented with Gibco B27 without insulin at 1×), Glutagro at 1× (Corning, Manassas, Va., catalog #25-015-CI, non-essential amino acids at 1× (Gibco, catalog #11-140-050), sodium butyrate (0.5 mM, Sigma Aldrich, catalog #B5887) and recombinant human Activin A (100 ng/mL, Peprotech, Rocky Hill, N.J., catalog #120-14E) for 7 days. On day 1, 2% KnockOut Serum Replacement (KSR; Gibco Catalog #10828028), CHIR-99021 (10 ng/mL, Selleckchem catalog #S2924), PI-103 (10 ng/mL,Selleckchem catalog #S1038), recombinant human BMP4 (10 ng/mL, Peprotech catalog #120-05ET) and FGF2 (20 ng/mL, Peprotech catalog #100-18B) were added to the media. On day 2, 1% KSR, PI-103 (10 ng/mL) and BMP4 (10 ng/mL) and FGF2 (20 ng/mL) and on day 3, 0.2% KSR and PI-103 (10 ng/mL) were added to the media. Doxycycline hyclate (Acros Organics catalog #446061000) was added throughout definitive endoderm induction starting on day 0 (passage day) at various concentrations, as described herein, with a standard concentration being 2 μM. These steps can be performed at normal room oxygen at about 20% or at low oxygen between 4 and 6%.

iPSC lines [2] = assay type: cell-based; conditions: for ability to enhance survival of cells during induction to endoderm, other antibiotic classes compared to doxycycline: FIGS. 2B and 9B; for effect of adding Y-27632 to the protocol including doxycycline: cell lines still difficult to induce
Description: Induction of Definitive Endoderm (days 1-7). iPSCs were plated on 6-, 12-, or 96-well Matrigel-coated plates at different densities for differentiation in iPSC media containing 10 μM Y-27632 and 2 μM doxycycline. For example, typical plating density in a single well of a 6-well plate was 500,000 cells or 20,000 cells per well for 96-well plates. The differentiation process consisted of one week of RPMI media supplemented with Gem21 NeuroPlex without insulin at 1× (supplied at 50×, Gemini Bio-Products West Sacramento, Calif., catalog #400-962, or supplemented with Gibco B27 without insulin at 1×), Glutagro at 1× (Corning, Manassas, Va., catalog #25-015-CI, non-essential amino acids at 1× (Gibco, catalog #11-140-050), sodium butyrate (0.5 mM, Sigma Aldrich, catalog #B5887) and recombinant human Activin A (100 ng/mL, Peprotech, Rocky Hill, N.J., catalog #120-14E) for 7 days. On day 1, 2% KnockOut Serum Replacement (KSR; Gibco Catalog #10828028), CHIR-99021 (10 ng/mL, Selleckchem catalog #S2924), PI-103 (10 ng/mL,Selleckchem catalog #S1038), recombinant human BMP4 (10 ng/mL, Peprotech catalog #120-05ET) and FGF2 (20 ng/mL, Peprotech catalog #100-18B) were added to the media. On day 2, 1% KSR, PI-103 (10 ng/mL) and BMP4 (10 ng/mL) and FGF2 (20 ng/mL) and on day 3, 0.2% KSR and PI-103 (10 ng/mL) were added to the media. Doxycycline hyclate (Acros Organics catalog #446061000) was added throughout definitive endoderm induction starting on day 0 (passage day) at various concentrations, as described herein, with a standard concentration being 2 μM. These steps can be performed at normal room oxygen at about 20% or at low oxygen between 4 and 6%.

In the case of `Cc1c[nH]c(-c2cnc(NCCNc3ccc(C#N)cn3)nc2-c2ccc(Cl)cc2Cl)n1` [CHIR99021], the “effect on number of cells in endoderm induction” value (iPSC lines [1]; addition in the first 24 hours) is reported as “improved the number of cells in multiple different cell lines”.
In the case of `CN(C)[C@@H]1C(O)=C(C(N)=O)C(=O)[C@@]2(O)C(O)=C3C(=O)c4c(O)ccc(Cl)c4[C@@H](O)[C@H]3C[C@@H]12` [Demeclocycline, demeclocycline], the “ability to rescue endoderm induction compared to doxycycline” value (iPSC line AS7192) is reported as “to some extent”.
In the case of `N=C(N)SCCc1ccc(OCc2ccc([N+](=O)[O-])cc2)cc1` [KB-R7943], the “response in compound screen, number of cells seven days after induction” value (iPSC line AG02261) is reported as “showed responses at specific doses”.
In the case of `C=C1c2cccc(O)c2C(=O)C2=C(O)[C@]3(O)C(=O)C(C(N)=O)=C(O)[C@@H](N(C)C)[C@@H]3[C@@H](O)[C@H]12` [Methacycline, methacycline], the “effect on endoderm induction at high concentration” value (iPSC line AG02261) is reported as “mostly toxicity”.
With `CN(C)c1ccc(O)c2c1C[C@H]1C[C@H]3[C@H](N(C)C)C(O)=C(C(N)=O)C(=O)[C@@]3(O)C(O)=C1C2=O` [Minocycline, minocycline] the “effect on endoderm induction at high concentration” value (iPSC line AG02261) was “mostly toxicity”.
For `COc1ccc(C[C@H](N)C(=O)N[C@H]2[C@@H](O)[C@H](n3cnc4c(N(C)C)ncnc43)O[C@@H]2CO)cc1` [Puromycin], the “ability to enhance survival of cells during induction to endoderm, other antibiotic classes compared to doxycycline” value (iPSC lines [2]) was “only Gentamicin showed a similar statistically significant ability”.
For `N.N.N.N.N.N.N.N.N.N.N.N.N.N.[Cl-].[Cl-].[Cl-].[Cl-].[Cl-].[Cl-].[O-2].[O-2].[Ru+3].[Ru+3].[Ru+4]` [Ruthenium Red], the “response in compound screen, number of cells seven days after induction” value (iPSC line AG02261) was “showed responses at specific doses”.
For `C[C@@H](N)[C@H]1CC[C@H](C(=O)Nc2ccncc2)CC1` [Y-27632], the “effect of adding Y-27632 to the protocol including doxycycline” value (iPSC lines [2]) was “promoted the efficient and complete differentiation of these cell lines”, the “effect of adding Y-27632 to the protocol including doxycycline” value (iPSC lines [2]; listed as Y27632) was “led to the rescue of additional stem cell lines” and the “rescue of induction by Y-27632 alone” value (iPSC lines [1]; resistant lines) was “does not produce the same robust induction; also recorded: not able to rescue resistant lines”.
In the case of `CC1(C)S[C@@H]2[C@H](NC(=O)[C@H](N)c3ccccc3)C(=O)N2[C@H]1C(=O)O` [ampicillin], the “ability to enhance survival of cells during induction to endoderm, other antibiotic classes compared to doxycycline” value (iPSC lines [2]) is reported as “only Gentamicin showed a similar statistically significant ability”.
With Gentamicin [Gentamycin] the “number of cells seven days after induction compared to the plating density at day 0 (compound screen)” value (iPSC lines [2]; antibiotics and mitochondria-affecting compounds compared to doxycycline, FIG. 2B) was “strong increasing dose response”.
